Reference: publication PMC6688997 (Nature Communications, 2019)
“And” between values parts separate entries of the source, which are not always exact repeats. Equal values may be shown once. Read-outs that look alike come from different tables or passages of the source.

Key:
[1] = system: parental Ba/F3 cells (with IL-3); assay: CellTiter-Glo cell viability assay; type: cell-based, murine; conditions: for IC50: 72 h, medium containing IL-3, read-out: IC50
Procedure: All media were supplemented with 100 U/ml penicillin, and 100 µg/ml streptomycin. All cells were routinely tested and verified to be free of mycoplasma contamination.
To assess cell viability after 72-h drug treatment, 2000–5000 cells were plated in replicates of three to six in 96-well plates. Following the drug treatments, the cells were incubated with CellTiter-Glo assay reagent (Promega, Madison, WI, USA) for 10 min. […] GraphPad Prism version 7.0 (GraphPad Software, La Jolla, CA, USA) was used to graphically display the data. IC50 values were determined using a nonlinear regression model with a sigmoidal dose response in GraphPad.

[2] = system: EML4-ALK I1171T induced Ba/F3 cells; assay: CellTiter-Glo cell viability assay; type: cell-based, murine; conditions: Mus musculus, BaF3, 72 h; read-out: IC50
[3] = Body weight of Ba/F3-CD74-ROS1-WT xenograft mice; type: in vivo, mouse; conditions: for Body Weight Change(%) (average / SD): N 6
PHKG2 = PHKG2 (Homo sapiens, UniProt P15735); assay: Kinase assay, ATP Km; type: biochemical
FLT3 = biological target: T1, FLT3 (Homo sapiens, UniProt P36888); assay: Kinase assay, ATP Km; type: biochemical
T1 construct: purchased Carna Biosciences

SRC = SRC (Homo sapiens, UniProt P12931); assay: Kinase assay, ATP Km; type: biochemical
FYN(isoform a) = FYN(isoform a) (Homo sapiens, UniProt P06241); assay: Kinase assay, ATP Km; type: biochemical
MARK2 = MARK2 (Homo sapiens, UniProt Q7KZI7); assay: Kinase assay, ATP Km; type: biochemical
EPHA6 = EPHA6 (Homo sapiens, UniProt Q9UF33); assay: Kinase assay, ATP Km; type: biochemical
KIT = biological target: T2, KIT (Homo sapiens, UniProt P10721); assay: Kinase assay, ATP Km; type: biochemical
T2 construct: purchased Carna Biosciences, Inc. (Kobe, Japan); assay run by the vendor

PEK = biological target: T3, PEK (Homo sapiens, UniProt Q9NZJ5); assay: Kinase assay, ATP Km; type: biochemical
T3 construct: purchased Carna Biosciences

PKD1 = biological target: T4, PKD1 (Homo sapiens, UniProt Q15139); assay: Kinase assay, ATP Km; type: biochemical
T4 construct: purchased Carna Biosciences

PIM1 = PIM1 (Homo sapiens, UniProt P11309); assay: Kinase assay, ATP Km; type: biochemical
EEF2K = EEF2K (Homo sapiens, UniProt O00418); assay: Kinase assay, ATP Km; type: biochemical
BUB1/BUB3 = BUB1/BUB3 (Homo sapiens, UniProt O43683); assay: Kinase assay, ATP Km; type: biochemical
DDR2 = biological target: T5, DDR2 (Homo sapiens, UniProt Q16832); assay: Kinase assay, 1 mM ATP; type: biochemical
T5 sequence (Q16832 22-855): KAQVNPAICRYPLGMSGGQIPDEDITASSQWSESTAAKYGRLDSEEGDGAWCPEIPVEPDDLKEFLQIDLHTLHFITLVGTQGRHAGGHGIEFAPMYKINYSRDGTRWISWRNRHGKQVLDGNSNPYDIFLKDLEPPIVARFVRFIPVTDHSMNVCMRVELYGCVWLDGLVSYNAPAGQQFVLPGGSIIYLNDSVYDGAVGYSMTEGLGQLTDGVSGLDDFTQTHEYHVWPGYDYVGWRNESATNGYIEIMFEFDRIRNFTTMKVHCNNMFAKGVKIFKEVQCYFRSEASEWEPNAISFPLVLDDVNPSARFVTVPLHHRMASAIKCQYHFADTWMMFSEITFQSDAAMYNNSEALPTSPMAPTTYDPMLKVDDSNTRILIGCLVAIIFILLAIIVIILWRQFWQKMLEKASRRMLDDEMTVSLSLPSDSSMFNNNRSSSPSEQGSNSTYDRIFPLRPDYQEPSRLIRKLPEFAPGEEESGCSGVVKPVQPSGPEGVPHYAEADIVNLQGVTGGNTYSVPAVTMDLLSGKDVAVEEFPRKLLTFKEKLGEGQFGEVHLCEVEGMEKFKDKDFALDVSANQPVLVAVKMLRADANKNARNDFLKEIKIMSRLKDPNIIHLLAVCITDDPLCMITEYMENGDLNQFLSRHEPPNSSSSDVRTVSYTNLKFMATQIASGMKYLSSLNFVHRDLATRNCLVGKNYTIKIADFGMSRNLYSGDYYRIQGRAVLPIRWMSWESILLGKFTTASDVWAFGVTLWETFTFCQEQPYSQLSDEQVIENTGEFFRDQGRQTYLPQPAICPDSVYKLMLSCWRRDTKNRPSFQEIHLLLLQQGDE

LTK = biological target: T6, LTK (Homo sapiens, UniProt P29376); assay: Kinase assay, 1 mM ATP; type: biochemical
T6 construct: purchased Carna Biosciences, Inc. (Kobe, Japan); assay run by the vendor
T6 sequence (P29376 17-864): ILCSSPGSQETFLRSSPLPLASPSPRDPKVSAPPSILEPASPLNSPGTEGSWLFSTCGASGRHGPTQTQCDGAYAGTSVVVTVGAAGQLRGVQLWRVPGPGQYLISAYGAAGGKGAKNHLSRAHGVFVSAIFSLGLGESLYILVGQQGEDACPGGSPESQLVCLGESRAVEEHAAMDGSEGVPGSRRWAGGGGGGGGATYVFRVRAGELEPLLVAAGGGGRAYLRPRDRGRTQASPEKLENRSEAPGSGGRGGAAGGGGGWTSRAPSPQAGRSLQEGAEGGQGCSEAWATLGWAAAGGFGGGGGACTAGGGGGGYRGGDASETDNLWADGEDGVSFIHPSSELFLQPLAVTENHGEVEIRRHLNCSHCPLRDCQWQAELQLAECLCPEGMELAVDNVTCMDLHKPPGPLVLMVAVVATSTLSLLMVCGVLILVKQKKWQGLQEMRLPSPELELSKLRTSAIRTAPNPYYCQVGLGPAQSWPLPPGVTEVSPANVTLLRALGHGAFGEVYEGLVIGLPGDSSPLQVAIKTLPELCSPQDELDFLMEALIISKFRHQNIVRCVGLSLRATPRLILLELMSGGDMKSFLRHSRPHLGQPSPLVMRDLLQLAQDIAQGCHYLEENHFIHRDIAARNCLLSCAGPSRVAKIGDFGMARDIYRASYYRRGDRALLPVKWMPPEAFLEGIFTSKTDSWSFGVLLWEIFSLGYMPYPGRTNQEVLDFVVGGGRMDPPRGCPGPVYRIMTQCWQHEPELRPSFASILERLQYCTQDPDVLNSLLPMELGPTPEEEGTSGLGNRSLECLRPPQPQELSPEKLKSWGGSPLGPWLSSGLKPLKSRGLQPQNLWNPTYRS

T1 sequence (P36888 27-993): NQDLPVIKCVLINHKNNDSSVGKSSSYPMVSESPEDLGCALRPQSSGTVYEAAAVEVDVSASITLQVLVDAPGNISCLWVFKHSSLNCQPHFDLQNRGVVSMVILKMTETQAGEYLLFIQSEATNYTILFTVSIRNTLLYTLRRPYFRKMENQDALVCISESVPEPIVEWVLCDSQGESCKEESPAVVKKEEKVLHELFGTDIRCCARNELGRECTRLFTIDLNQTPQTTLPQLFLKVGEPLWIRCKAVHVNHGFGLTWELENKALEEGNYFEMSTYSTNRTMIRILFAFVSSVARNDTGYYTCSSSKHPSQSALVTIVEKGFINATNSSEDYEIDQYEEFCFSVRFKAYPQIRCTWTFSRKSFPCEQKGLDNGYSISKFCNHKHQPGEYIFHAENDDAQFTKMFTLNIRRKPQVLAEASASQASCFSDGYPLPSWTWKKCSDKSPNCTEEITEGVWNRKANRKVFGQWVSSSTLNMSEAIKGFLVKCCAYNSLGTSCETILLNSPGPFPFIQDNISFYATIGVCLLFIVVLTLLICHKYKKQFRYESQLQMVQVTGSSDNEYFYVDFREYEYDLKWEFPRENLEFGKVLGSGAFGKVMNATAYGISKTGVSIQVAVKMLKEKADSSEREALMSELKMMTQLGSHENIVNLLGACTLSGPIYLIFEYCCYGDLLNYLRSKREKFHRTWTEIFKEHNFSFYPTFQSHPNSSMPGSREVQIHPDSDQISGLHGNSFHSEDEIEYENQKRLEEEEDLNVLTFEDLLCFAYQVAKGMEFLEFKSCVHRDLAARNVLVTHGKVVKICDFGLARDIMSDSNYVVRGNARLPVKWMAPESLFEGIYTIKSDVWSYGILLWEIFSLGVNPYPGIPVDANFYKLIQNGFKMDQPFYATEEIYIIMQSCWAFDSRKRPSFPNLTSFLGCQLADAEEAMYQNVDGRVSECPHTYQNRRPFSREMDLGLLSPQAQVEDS
Sequence of FYN(isoform a) (P06241 whole entry, canonical isoform): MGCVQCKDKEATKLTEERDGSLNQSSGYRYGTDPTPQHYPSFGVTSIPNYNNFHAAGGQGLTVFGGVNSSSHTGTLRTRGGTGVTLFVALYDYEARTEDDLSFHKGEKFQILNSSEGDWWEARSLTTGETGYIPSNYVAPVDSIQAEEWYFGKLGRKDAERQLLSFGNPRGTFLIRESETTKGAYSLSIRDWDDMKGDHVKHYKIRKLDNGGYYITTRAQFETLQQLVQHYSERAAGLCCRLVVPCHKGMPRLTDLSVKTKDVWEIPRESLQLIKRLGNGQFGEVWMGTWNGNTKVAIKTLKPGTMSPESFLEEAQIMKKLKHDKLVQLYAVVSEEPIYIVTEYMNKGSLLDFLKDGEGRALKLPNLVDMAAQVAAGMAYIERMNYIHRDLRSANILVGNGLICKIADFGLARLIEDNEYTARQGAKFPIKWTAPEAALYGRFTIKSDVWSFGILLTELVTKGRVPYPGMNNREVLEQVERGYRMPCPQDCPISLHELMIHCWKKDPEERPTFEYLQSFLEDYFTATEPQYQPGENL
Sequence of BUB1/BUB3 (O43683 whole entry): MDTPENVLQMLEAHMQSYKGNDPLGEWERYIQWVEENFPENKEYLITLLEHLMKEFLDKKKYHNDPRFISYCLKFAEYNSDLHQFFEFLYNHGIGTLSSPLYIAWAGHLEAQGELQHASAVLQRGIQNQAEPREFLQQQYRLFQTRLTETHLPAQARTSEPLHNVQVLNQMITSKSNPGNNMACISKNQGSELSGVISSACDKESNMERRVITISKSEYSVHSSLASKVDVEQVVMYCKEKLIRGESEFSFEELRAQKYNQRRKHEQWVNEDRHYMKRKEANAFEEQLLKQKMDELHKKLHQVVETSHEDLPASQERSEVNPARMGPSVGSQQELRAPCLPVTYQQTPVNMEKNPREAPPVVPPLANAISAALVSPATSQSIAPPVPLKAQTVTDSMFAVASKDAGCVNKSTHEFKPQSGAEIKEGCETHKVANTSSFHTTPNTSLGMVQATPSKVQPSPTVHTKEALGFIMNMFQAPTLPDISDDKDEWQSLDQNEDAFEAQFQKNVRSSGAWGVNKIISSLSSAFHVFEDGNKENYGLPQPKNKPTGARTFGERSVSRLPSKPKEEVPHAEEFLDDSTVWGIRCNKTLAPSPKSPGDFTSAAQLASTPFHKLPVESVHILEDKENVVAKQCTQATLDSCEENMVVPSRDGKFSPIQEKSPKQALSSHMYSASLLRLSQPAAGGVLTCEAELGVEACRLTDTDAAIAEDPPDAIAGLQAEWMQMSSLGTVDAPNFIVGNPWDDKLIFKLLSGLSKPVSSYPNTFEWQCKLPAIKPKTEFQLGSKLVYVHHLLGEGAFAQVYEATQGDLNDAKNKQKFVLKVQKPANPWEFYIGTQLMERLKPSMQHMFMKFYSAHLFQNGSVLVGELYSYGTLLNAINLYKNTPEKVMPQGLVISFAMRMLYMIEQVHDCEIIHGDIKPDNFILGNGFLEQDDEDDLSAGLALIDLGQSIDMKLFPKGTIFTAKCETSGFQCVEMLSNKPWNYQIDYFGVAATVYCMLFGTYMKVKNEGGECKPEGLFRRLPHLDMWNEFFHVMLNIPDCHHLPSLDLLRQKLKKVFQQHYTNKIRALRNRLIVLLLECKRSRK
Sequence of BUB1/BUB3 (O43684 whole entry partner): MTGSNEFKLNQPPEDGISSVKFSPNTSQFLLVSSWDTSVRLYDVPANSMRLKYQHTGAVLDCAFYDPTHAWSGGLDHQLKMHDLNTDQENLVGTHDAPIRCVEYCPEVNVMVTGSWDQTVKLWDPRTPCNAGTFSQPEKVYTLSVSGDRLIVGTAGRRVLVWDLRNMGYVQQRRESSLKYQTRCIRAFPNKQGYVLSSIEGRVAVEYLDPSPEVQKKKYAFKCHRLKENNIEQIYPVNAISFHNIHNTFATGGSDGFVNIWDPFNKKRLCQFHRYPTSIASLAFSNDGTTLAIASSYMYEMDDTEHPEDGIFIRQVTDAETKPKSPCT
T4 sequence (Q15139 whole entry): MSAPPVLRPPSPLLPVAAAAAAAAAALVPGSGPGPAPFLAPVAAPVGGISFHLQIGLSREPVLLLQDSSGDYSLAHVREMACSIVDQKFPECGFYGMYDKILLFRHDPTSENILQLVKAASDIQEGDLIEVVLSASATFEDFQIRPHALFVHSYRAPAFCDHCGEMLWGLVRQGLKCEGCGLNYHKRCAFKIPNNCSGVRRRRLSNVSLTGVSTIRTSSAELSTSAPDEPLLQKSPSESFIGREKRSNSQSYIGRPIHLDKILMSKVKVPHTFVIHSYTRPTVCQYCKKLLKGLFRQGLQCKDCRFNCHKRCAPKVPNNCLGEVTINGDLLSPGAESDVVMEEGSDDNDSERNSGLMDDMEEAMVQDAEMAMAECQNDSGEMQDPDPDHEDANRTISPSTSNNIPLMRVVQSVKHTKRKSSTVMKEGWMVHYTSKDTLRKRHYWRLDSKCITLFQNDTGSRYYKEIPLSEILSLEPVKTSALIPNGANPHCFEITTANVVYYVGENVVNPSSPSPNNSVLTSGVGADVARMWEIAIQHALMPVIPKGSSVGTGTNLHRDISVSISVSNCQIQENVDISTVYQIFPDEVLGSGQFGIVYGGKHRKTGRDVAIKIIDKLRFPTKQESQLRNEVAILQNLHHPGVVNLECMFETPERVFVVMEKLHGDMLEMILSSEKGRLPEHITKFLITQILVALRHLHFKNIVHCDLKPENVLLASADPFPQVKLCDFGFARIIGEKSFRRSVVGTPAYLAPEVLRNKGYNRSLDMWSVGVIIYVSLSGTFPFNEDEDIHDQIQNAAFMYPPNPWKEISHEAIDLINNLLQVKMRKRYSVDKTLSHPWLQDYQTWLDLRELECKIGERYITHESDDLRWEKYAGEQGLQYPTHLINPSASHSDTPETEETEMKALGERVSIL
Sequence of PIM1 (P11309 whole entry): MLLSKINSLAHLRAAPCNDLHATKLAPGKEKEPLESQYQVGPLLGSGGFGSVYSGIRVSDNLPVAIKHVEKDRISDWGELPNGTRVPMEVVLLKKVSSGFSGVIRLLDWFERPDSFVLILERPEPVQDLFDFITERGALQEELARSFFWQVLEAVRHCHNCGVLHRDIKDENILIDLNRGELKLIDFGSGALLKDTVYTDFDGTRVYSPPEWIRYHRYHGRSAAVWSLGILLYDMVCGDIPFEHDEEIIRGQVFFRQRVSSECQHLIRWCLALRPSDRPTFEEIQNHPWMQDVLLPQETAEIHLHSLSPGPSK

C[C@@H](N)COc1ccc(-c2cnc3ccc(N[C@H](C)c4cccc(F)c4)nn23)cc1.O=C(O)CCCCC(=O)O [DS-6051b]
IC50 [1]: > 1000 nM
IC50 ([1]; Mus musculus, BaF3, 72 h): 1410 nM
GI50 ([1]; Mus musculus, BaF3, source data sheet): 1400 nM
IC50 [2]: 459 nM
Body Weight Change(%) (average / SD) ([3]; DS-6051b 3 mg/kg po, day 0, average): 0.0%
Body Weight Change(%) (individual) ([3]; DS-6051b 3 mg/kg po, day 0, individual animals): 0%
Body Weight Change(%) (average / SD) ([3]; DS-6051b 3 mg/kg po, day 1, average): -1.4%
Body Weight Change(%) (individual) ([3]; DS-6051b 3 mg/kg po, day 1, individual animals): -0.5% and 0.5% and -2.3% and -3.9% and -1.5%
Body Weight Change(%) (average / SD) ([3]; DS-6051b 3 mg/kg po, day 2, average): 0.1%
Body Weight Change(%) (individual) ([3]; DS-6051b 3 mg/kg po, day 2, individual animals): 0.5% and 3.8% and 1.4% and -3.2% and -0.4% and -1.5%
Body Weight Change(%) (average / SD) ([3]; DS-6051b 3 mg/kg po, day 3, average): 0.9%
Body Weight Change(%) (individual) ([3]; DS-6051b 3 mg/kg po, day 3, individual animals): 1.9% and 4.3% and 1.4% and -2.7% and 0.4% and 0%
Body Weight Change(%) (average / SD) ([3]; DS-6051b 3 mg/kg po, day 4, average): 1.5%
Body Weight Change(%) (individual) ([3]; DS-6051b 3 mg/kg po, day 4, individual animals): 1.4% and 4.8% and 2.8% and -2.3% and 0.4% and 2%
Body Weight Change(%) (average / SD) ([3]; DS-6051b 10 mg/kg po, day 0, average): 0.0%
Body Weight Change(%) (individual) ([3]; DS-6051b 10 mg/kg po, day 0, individual animals): 0%
Body Weight Change(%) (average / SD) ([3]; DS-6051b 10 mg/kg po, day 1, average): -2.6%
Body Weight Change(%) (individual) ([3]; DS-6051b 10 mg/kg po, day 1, individual animals): -2.0% and -2.4% and -3.0% and -0.5% and -4.6% and -2.9%
Body Weight Change(%) (average / SD) ([3]; DS-6051b 10 mg/kg po, day 2, average): -0.7%
Body Weight Change(%) (individual) ([3]; DS-6051b 10 mg/kg po, day 2, individual animals): 0.5% and -1.4% and -0.5% and 2.5% and -1.8% and -3.4%
Body Weight Change(%) (average / SD) ([3]; DS-6051b 10 mg/kg po, day 3, average): 0.3%
Body Weight Change(%) (individual) ([3]; DS-6051b 10 mg/kg po, day 3, individual animals): 1.5% and -0.5% and 2.5% and -0.9%
Body Weight Change(%) (average / SD) ([3]; DS-6051b 10 mg/kg po, day 4, average): -1.0%
Body Weight Change(%) (individual) ([3]; DS-6051b 10 mg/kg po, day 4, individual animals): 1.0% and -2.4% and -2.5% and 1.5% and -1.8% and -1.9%
Body Weight Change(%) (average / SD) ([3]; DS-6051b 30 mg/kg po, day 0, average): 0.0%
Body Weight Change(%) (individual) ([3]; DS-6051b 30 mg/kg po, day 0, individual animals): 0%
Body Weight Change(%) (average / SD) ([3]; DS-6051b 30 mg/kg po, day 1, average): -3.0%
Body Weight Change(%) (individual) ([3]; DS-6051b 30 mg/kg po, day 1, individual animals): -1.9% and -2.5% and -2.8% and -3.4% and -2.6% and -5%
Body Weight Change(%) (average / SD) ([3]; DS-6051b 30 mg/kg po, day 2, average): -2.1%
Body Weight Change(%) (individual) ([3]; DS-6051b 30 mg/kg po, day 2, individual animals): -2.4% and -1.0% and -2.8% and -1.9% and -2.1% and -2.5%
Body Weight Change(%) (average / SD) ([3]; DS-6051b 30 mg/kg po, day 3, average): -2.0%
Body Weight Change(%) (individual) ([3]; DS-6051b 30 mg/kg po, day 3, individual animals): -1.0% and -2.3% and -2.9% and -1.5% and -3%
Body Weight Change(%) (average / SD) ([3]; DS-6051b 30 mg/kg po, day 4, average): -3.2%
Body Weight Change(%) (individual) ([3]; DS-6051b 30 mg/kg po, day 4, individual animals): -1.0% and -2.5% and -3.8% and -3.9% and -2.1% and -6%
Body Weight Change(%) (average / SD) ([3]; DS-6051b 100 mg/kg po, day 0, average): 0.0%
Body Weight Change(%) (individual) ([3]; DS-6051b 100 mg/kg po, day 0, individual animals): 0%
Body Weight Change(%) (average / SD) ([3]; DS-6051b 100 mg/kg po, day 1, average): -3.0%
Body Weight Change(%) (individual) ([3]; DS-6051b 100 mg/kg po, day 1, individual animals): -2.9% and -3.5% and -2.3% and -5.8% and -1.8% and -1.5%
Body Weight Change(%) (average / SD) ([3]; DS-6051b 100 mg/kg po, day 2, average): -2.4%
Body Weight Change(%) (individual) ([3]; DS-6051b 100 mg/kg po, day 2, individual animals): -2.5% and -1.5% and -3.6% and -3.1% and -2.3%
Body Weight Change(%) (average / SD) ([3]; DS-6051b 100 mg/kg po, day 3, average): -3.0%
Body Weight Change(%) (individual) ([3]; DS-6051b 100 mg/kg po, day 3, individual animals): -2.5% and -2.7% and -6.7% and -2.8% and -0.5%
Body Weight Change(%) (average / SD) ([3]; DS-6051b 100 mg/kg po, day 4, average): -2.2%
Body Weight Change(%) (individual) ([3]; DS-6051b 100 mg/kg po, day 4, individual animals): -3.4% and -2% and -2.7% and -4% and -2.3% and 1.5%
Body weight loss ([3]; ≥30 mg/kg): without severe body weight loss
inhibition at 0.04 µM (PHKG2): 87.4%
inhibition at 0.04 µM (FLT3): 61.4%
inhibition at 0.04 µM (SRC): 53.6%
inhibition at 0.04 µM (FYN(isoform a)): 42.6%
inhibition at 0.04 µM (MARK2): 30.4%
inhibition at 0.04 µM (EPHA6): 30.3%
inhibition at 0.04 µM (KIT): 12.5%
inhibition at 0.04 µM (PEK): 6.2%
inhibition at 0.04 µM (PKD1): 3.2%
inhibition at 0.04 µM (PIM1): 2.8%
inhibition at 0.04 µM (EEF2K): 0.139%
inhibition at 0.04 µM (BUB1/BUB3): -1.8%
inhibition at 0.2 µM (DDR2; 0.2μM, 1 mM ATP): 43.5%
IC50 (DDR2; ATP: 1 mM): 299 nM
% Inhibition (LTK; 0.2μM, 1 mM ATP): almost completely inhibited
inhibition at 0.2 µM (LTK; 0.2μM, 1 mM ATP): 86.9%
IC50 (LTK; ATP: 1 mM): 25.4 nM
